This is an account of results in patent US9636323B2, “Method of treating cancer that overexpresses TopBP1” (Baylor College of Medicine, priority 2014, dated 2017).

Test [1] concerns TopBP1-BRCT7/8 binding to p53(DBD). The experiment in a line: GST-p53(DBD) pulldown assay. The following applies: FIG. 1g. The method, then: Purified TopBP1-BRCT7/8 (2 μg) was incubated with compounds in NETN-A buffer as above at 4° C. for 3 h with constant rotation. Then purified GST-p53-DBD or GST (2 μg) were added and rotated for another 3 h at 4° C. GST-p53-DBD was then pulled down with glutathione-Sepharose. The beads were washed six times with NETN-B buffer and then subjected to SDS-PAGE analysis.

Test [2] has as its system TopBP1-BRCT7/8 binding to pS1159 peptide. The experiment in a line: pS1159 peptide binding assay (streptavidin Sepharose pulldown). The following applies: FIG. 1f. The method, then: The GST fusion proteins in Escherichia coli strain BL21 were induced by 0.1 mM IPTG (isopropyl-β-D-thiogalactopyranoside) and purified according to the standard protocol. The GST portion on GST-TopBP1-BRCT7/8 was excised by Pre-Scission protease (Pharmacia). Two purified (>98%) biotin conjugated peptides were synthesized from Sigma Genosys. The peptide sequence is derived from the surrounding sequence of TopBP1 S1159: pP, Btn-[…]pSer^1159NLQWPS and nP, Btn-[…]. Purified TopBP1-BRCT7/8 (2 μg) was incubated with compounds in NETN-A buffer (50 mM NaCl, 1 mM EDTA, 20 mM Tris, 0.5% NP-40) at 4° C. for 3 h with constant rotation. Then 2 μg of purified pP or nP peptides were added and rotated for another 3 h at 4° C. The biotin-conjugated peptides were then pulled down with streptavidin-Sepharose (Amersham). The beads were washed six times with NETN-B buffer (100 mM NaCl, 1 mM EDTA, 0.2 mM phenylmethylsulfonyl fluoride) and then subjected to sodium dodecyl sulfate-polyacrylamide gel electrophoresis (SDS-PAGE) and analyzed by Western blotting with anti-TopBP1 antibody (1:1000, BL893, Bethyl Laboratories).

Take `O=C(O)CN(CC(=O)O)Cc1cc2c(cc1O)Oc1cc(O)c(CN(CC(=O)O)CC(=O)O)cc1C21OC(=O)c2ccccc21` [Calcein, calcein]: the “concentrations at which TopBP1/p53(DBD) interaction was blocked” value in test [1] is listed as “submicromolar”. Also, the “effective amount of Calcein that needs to be present” value in test [1] (GST-p53(DBD) pulldown) and in test [2] (pS1159 peptide binding) was 60 to 300 nM in each case. Moreover, the “concentrations at which TopBP1/pS1159 interaction was blocked” value in test [2] was “submicromolar”.
